Tests used:
[1] = system: human solid and hematological cancer cell lines; experiment: Cell proliferation assay (CellTiter-Glo), cell line panel; assay type: cell-based; conditions: 72 h, range over solid and hematological cancer cell lines, 3 days exposure
Protocol: The growth inhibitory effect of TAS1553 was determined by calculating the GI50 value against human solid and hematological cancer cell lines.
(§1) Cell proliferation assay was performed as reported previously. Briefly, cells were plated and incubated for 1 day, followed by 3 days of exposure to the compound. After compound exposure, viable cells were detected by using the CellTiter-Glo luminescent cell viability assay (Promega). GI50 values were calculated using the SAS software package. The experiment was performed in triplicates.

human R1 = target: T1, human R1 (Homo sapiens, UniProt P23921); experiment: Surface plasmon resonance binding analysis; conditions: SPR, steady-state affinity, three independent experiments
T1 construct: made in house; host or cells: Escherichia coli
T1 sequence (P23921 1-792): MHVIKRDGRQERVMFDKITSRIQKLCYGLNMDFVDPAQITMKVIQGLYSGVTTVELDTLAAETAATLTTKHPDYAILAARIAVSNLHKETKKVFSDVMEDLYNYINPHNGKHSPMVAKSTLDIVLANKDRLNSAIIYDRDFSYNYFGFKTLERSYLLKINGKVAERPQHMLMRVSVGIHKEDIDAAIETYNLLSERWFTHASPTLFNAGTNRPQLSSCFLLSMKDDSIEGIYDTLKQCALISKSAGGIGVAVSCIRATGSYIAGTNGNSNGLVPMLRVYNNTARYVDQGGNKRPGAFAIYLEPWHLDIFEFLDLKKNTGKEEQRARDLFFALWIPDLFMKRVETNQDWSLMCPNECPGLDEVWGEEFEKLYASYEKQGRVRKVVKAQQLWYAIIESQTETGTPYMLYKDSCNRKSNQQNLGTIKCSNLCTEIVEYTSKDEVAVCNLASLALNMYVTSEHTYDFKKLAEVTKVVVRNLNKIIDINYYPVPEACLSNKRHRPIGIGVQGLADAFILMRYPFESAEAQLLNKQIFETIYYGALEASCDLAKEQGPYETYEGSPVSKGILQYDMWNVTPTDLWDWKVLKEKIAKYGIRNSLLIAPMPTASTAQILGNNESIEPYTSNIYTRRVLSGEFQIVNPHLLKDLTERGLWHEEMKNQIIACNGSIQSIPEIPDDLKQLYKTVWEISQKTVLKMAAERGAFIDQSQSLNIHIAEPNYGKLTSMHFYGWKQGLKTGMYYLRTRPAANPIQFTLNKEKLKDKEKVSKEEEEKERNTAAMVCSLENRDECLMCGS
Protocol: The binding affinity of TAS1553 to the R1 subunit was investigated using surface plasmon resonance (SPR) binding analysis. […] Next, we evaluated the inhibitory effect of TAS1553 against the enzymatic activity of RNR, consisting of R1 and R2 recombinant proteins. RNR activity was determined by its ability to reduce cytidine diphosphate (CDP) to deoxycytidine diphosphate (dCDP), based on a previous report. […] In addition to the inhibitory effect on RNR, TAS1553 was evaluated in a Eurofins LeadProfilingScreen panel assay including 68 proteins, such as ion channels, transporters, nuclear receptors, and G protein-coupled receptors, to examine its potential adverse activity.

MV-4-11 cells = experiment: Cell proliferation assay (CellTiter-Glo), MV-4-11; assay type: cell-based; conditions: Homo sapiens, MV4-11, 72 h; MV-4-11, 3 days exposure
Protocol: Next, we evaluated both concentration-dependent and time-dependent effects of TAS1553 on the dATP pool in HCC38 and MV-4-11 cell lines using absolute quantification. After 2 h of TAS1553 exposure, there was a concentration-dependent reduction of intracellular dATP pool in both cell lines (Fig. 2c). Furthermore, the intracellular dATP pool was reduced within 30 minutes when treated with TAS1553 at 1 or 10 µmol/L in both cell lines (Fig. 2d), consistent with its inhibitory effect on the protein-protein interaction (Fig. 2a).
as §1

Cc1ccc(F)c([C@@H](C)[C@H](NS(=O)(=O)c2ccc(Cl)cc2C(N)=O)c2n[nH]c(=O)o2)c1C [TAS1553, 5-chloro-2-{N-[(1S,2R)-2-(6-fluoro-2,3-dimethylphenyl)-1-(5-oxo-4,5-dihydro-1,3,4-oxadiazol-2-yl)propyl]sulfamoyl}benzamide]
GI50 [1]: 228 to 4150 nM | Kd (human R1): 34.9 ± 0.9 nM | GI50 (MV-4-11 cells): 393 nM
